Reference: patent US7795310B2, “Methods and reagents for the treatment of metabolic disorders” (CombinatoRx, Inc., priority 2004, dated 2010)
Where a name gives a salt, the structure may show the parent alone. Read-outs that look alike come from different tables or passages of the source.

How the values were obtained:
3T3-L1 adipocytes [1] = assay: Screening assay: insulin-stimulated 14C-glucose uptake by adipocytes (Example 3; F, sF, S/N); format: cell-based, mouse
Procedure: These assays were conducted as follows.
(§1) Complete media, also referred to as “Prees” media, was prepared as follows. Dulbecco's Modified Eagle's Medium (DMEM) was supplemented with L-glutamine, penicillin-G and streptomycin (pen/strep), and heat-inactivated fetal bovine serum (FBS) (heat inactivated at […] for 30 minutes). Because serum can affect the growth, adherence, and differentiation of cells, any new lot of serum was first tested prior to use. Media was equilibrated in the incubator (5% CO2) until the pH was within the proper range (˜7), as indicated by the red/orange color of the indicator dye. If the media became pink (indicating a high pH), we discarded the media as basic conditions can affect cells and denature the insulin used in the differentiation medium-1 (DM1) and the differentiation medium-2 (DM2).
Differentiation media-2 (DM2) was prepared by supplementing DMEM with 10% FBS, L-glutamine, pen/strep, and insulin (120 nM).
(§2) Cell culture plates were gelatinized as follows. Gelatin (1% w/v in distilled water) was autoclaved and stored at room temperature. The bottom of each cell culture well was covered uniformly in the gelatin solution, ensuring that no bubbles were formed. This solution was removed leaving behind a thin film of gelatin. These plates were left to dry under the tissue culture hood. Plates were next washed with PBS, after which a 0.5% glutaric dialdehyde solution (glutaraldehyde in distilled water) was added to the cell culture wells. After ten minutes, wells were washed twice with DMEM containing pen-strep. Each washing step should last for approximately five minutes.
(§3) 3T3-L1 pre-adipocyte cells were split approximately every 2-3 days or upon reaching a confluence of approximately 60%. Overconfluency may affect the ability of these cells to differentiate into adipocytes.
(§4) D-(+)-glucose (“cold” glucose, not radiolabeled) was added to DPBS mix to a final concentration of 10 mM.
(§5) Lysis buffer, a mixture of a base (e.g., sodium hydroxide at a final concentration of 0.5N) and a detergent (e.g., sodium dodecyl sulphate (SDS) diluted to a final concentration of 0.1% w/v) was freshly prepared each time (within one to two hours of use). Prior to use, lysis buffer was warmed up to a temperature exceeding that of room temperature for a period of approximately 30 minutes to avoid precipitation of the buffer.
(§6) Pre-adipocyte 3T3-L1 cells were plated at a density of approximately 5000 cells/well (in black NUNC 96 well plate). These cells were differentiated into adipocytes in two separate steps. Initially, cells were cultured in differentiation medium-1 (DM1) (day 1 of adipocyte differentation) for a period of two to three days. DM1 prevents proliferation and induces the expression of adipocyte-specific genes. Cells were next cultured in differentiation medium-2 (DM2) for 3 to 4 days, after which the culture media was replaced by fresh DM2. The glucose uptake assay was performed at day 9-15 of differentiation.
Two days prior to the experiment (at day 7-13 of differentiation), DM2 was removed and replaced with fresh Prees media. Candidate compounds were added at this time, allowing an incubation period of approximately 48 hours. On the day of the experiment, cells (now at day 9 to 15 of differentiation) were serum starved for three hours in DPBS, magnesium sulfate (0.8 mM), and Hepes (10 mM) at pH ˜7. After this incubation period, fresh DPBS containing insulin (10 nM) was added to the adipocytes. Fresh DPBS without any insulin were placed on cells that served as a negative control. Following an incubation period of 25 minutes at 37° C., radioactive glucose (labeled with ^14C, at a final concentration of 0.04 mM, ˜0.26 μCi ^14C-glucose in each well) was added to the media for a period of 15 minutes at room temperature. Media was next removed and cells were washed thoroughly and lysed. Upon lysis, cells form a small, cloudy mass, detached from the well bottom.

human skeletal myoblasts = assay: Glycogen synthesis from radiolabeled glucose in skeletal myoblasts (Example 3; Xlsyz); format: cell-based
Procedure: In another set of experiments, human skeletal myoblasts obtained by the conditional immortalization of cells derived from a non-diabetic subject, were used to screen the effect of a multitude of compounds on glycogen synthesis. For each compound, two doses were tested in triplicate. The vehicle was used as a negative control and insulin was used as a positive control. Prior to treatment, cells were serum-starved for 12 to 18 hours in Ham's F10 medium. Cells were next incubated either with the test compounds or control for a period of two hours in serum-free media containing radiolabeled glucose, after which, glycogen synthesis was measured.

3T3-L1 adipocytes [2] = assay: Insulin-stimulated 14C-glucose uptake in differentiated adipocytes (Example 1); format: cell-based, mouse
Procedure: Differentiated mouse adipocytes were employed to identify combinations of agents that have the ability to increase glucose uptake upon insulin stimulation, as detected by scintillation counting of radiolabelled glucose (using, for example, the Perkin Elmer 1450 Microbeta JET reader). These assays were conducted as follows.
as §1
Differentiation media-1 (DM1) was prepared by supplementing DMEM with 10% FBS, L-glutamine, pen/strep, IBMX (375 μM), insulin (120 nM), and dexamethasone (188 nM). Differentiation media-2 (DM2) was prepared by supplementing DMEM with 10% FBS, L-glutamine, pen/strep, and insulin (120 nM).
as §2, §3, §4, §5, §6
Two days prior to the experiment (at day 7-13 of differentiation), DM2 was removed and replaced with fresh Prees media. Candidate compounds were added at this time, allowing an incubation period of approximately 48 hours. On the day of the experiment, cells (now at day 9 to 15 of differentiation) were serum starved for three hours in DPBS, magnesium sulfate (0.8 mM), and Hepes (10 mM) at pH ˜7. After this incubation period, fresh DPBS containing insulin (10 nM) was added to the adipocytes. Fresh DPBS without any insulin were placed on cells that served as a negative control. […]

[3] = insulin-stimulated 14C-glucose uptake, 3T3-L1 adipocytes, about 48 h with compound, 10 nM insulin, test concentration per compound in column CRx uM
[4] = glycogen synthesis, human skeletal myoblasts, 2 h, dose (H)
[5] = glycogen synthesis, human skeletal myoblasts, 2 h, dose (L), concentration per compound uM(L)

Compound | CRx F (3T3-L1 adipocytes [1]; [3]) | Xlsyz F(H) (human skeletal myoblasts; [4]) | Xlsyz F(L) (human skeletal myoblasts; [5]) | further results
CC(=O)Nc1ccc(O)cc1 [Acetaminophen] | 1.021 |  |  | 
CC(=O)Nc1nnc(S(N)(=O)=O)s1 [Acetazolamide] | 0.8994 |  |  | 
CC(=O)O[C@H]1C[C@H](O[C@H]2[C@@H](O)C[C@H](O[C@H]3[C@@H](O)C[C@H](O[C@H]4CC[C@@]5(C)[C@H](CC[C@@H]6[C@@H]5CC[C@]5(C)[C@@H](C7=CC(=O)OC7)CC[C@]65O)C4)O[C@@H]3C)O[C@@H]2C)O[C@H](C)[C@H]1O [Acetyldigitoxin] | 0.8077 | 1.2593 | 1.3016 | 
Cl.N [Ammonium Chloride] |  | 1.2105 | 0.8482 | CRx F (3T3-L1 adipocytes [1]): 0.8881
CCCCNCC(O)c1ccc(O)cc1 (stereo not drawn) [Bamethan] | 1.1895 | 1.3846 | 0.9106 | 
CC(C)(Oc1ccc(CCNC(=O)c2ccc(Cl)cc2)cc1)C(=O)O [Bezafibrate] |  |  |  | average fold increase in insulin-stimulated glucose uptake compared to vehicle treated control (3T3-L1 adipocytes [2]; Bezafibrate 9 μM, Cinnamic acid 0 μM, average of three biological replicates): 0.94 fold; average fold increase in insulin-stimulated glucose uptake compared to vehicle treated control (3T3-L1 adipocytes [2]; Bezafibrate 9 μM, Diflunisal 0 μM, average of four biological replicates): 1.16 fold; average fold increase in insulin-stimulated glucose uptake compared to vehicle treated control (3T3-L1 adipocytes [2]; Bezafibrate 18 μM, Cinnamic acid 0 μM, average of three biological replicates): 1.21 fold; average fold increase in insulin-stimulated glucose uptake compared to vehicle treated control (3T3-L1 adipocytes [2]; Bezafibrate 18 μM, Diflunisal 0 μM, average of four biological replicates): 1.37 fold; average fold increase in insulin-stimulated glucose uptake compared to vehicle treated control (3T3-L1 adipocytes [2]; Bezafibrate 36 μM, Cinnamic acid 0 μM, average of three biological replicates): 1.15 fold; average fold increase in insulin-stimulated glucose uptake compared to vehicle treated control (3T3-L1 adipocytes [2]; Bezafibrate 36 μM, Diflunisal 0 μM, average of four biological replicates): 1.57 fold
[Ca+2].[Cl-].[Cl-] [Calcium Chloride] |  |  |  | CRx F (3T3-L1 adipocytes [1]): 0.7358; Xlsyz F(H) (human skeletal myoblasts): 1.2121; Xlsyz F(L) (human skeletal myoblasts): 1.0714
C[C@H](CS)C(=O)N1CCC[C@H]1C(=O)O [Captopril] | 0.662 |  |  | 
NC(=O)N1c2ccccc2C=Cc2ccccc21 [Carbamazepine] | 0.7464 |  |  | 
O=C(O)C=Cc1ccccc1 [Cinnamic acid, 3-phenyl-2-propenoic acid] |  |  |  | average fold increase in insulin-stimulated glucose uptake compared to vehicle treated control (3T3-L1 adipocytes [2]; Cinnamic acid 3 μM, Bezafibrate 0 μM, average of three biological replicates): 0.98 fold; average fold increase in insulin-stimulated glucose uptake compared to vehicle treated control (3T3-L1 adipocytes [2]; Cinnamic acid 6 μM, Bezafibrate 0 μM, average of three biological replicates): 1.03 fold; average fold increase in insulin-stimulated glucose uptake compared to vehicle treated control (3T3-L1 adipocytes [2]; Cinnamic acid 12 μM, Bezafibrate 0 μM, average of three biological replicates): 1.10 fold
[Cl][Cu][Cl] [Cupric Chloride] | 1.3661 | 1.25 | 1.0643 | 
O=C(O)Cc1ccccc1Nc1c(Cl)cccc1Cl [Diclofenac Sodium] | 1.3966 |  |  | 
Cc1onc(-c2c(Cl)cccc2Cl)c1C(=O)N[C@@H]1C(=O)N2[C@@H]1SC(C)(C)[C@@H]2C(=O)O [Dicloxacillin Sodium] | 1.0042 |  |  | 
O=C(O)c1cc(-c2ccc(F)cc2F)ccc1O [Diflunisal, 2′,4′-difluoro-4-hydroxy-[1,1′-biphenyl]-3-carboxylic acid] |  |  |  | average fold increase in insulin-stimulated glucose uptake compared to vehicle treated control (3T3-L1 adipocytes [2]; Diflunisal 9 μM, Bezafibrate 0 μM, average of four biological replicates): 1.12 fold; average fold increase in insulin-stimulated glucose uptake compared to vehicle treated control (3T3-L1 adipocytes [2]; Diflunisal 18 μM, Bezafibrate 0 μM, average of four biological replicates): 1.19 fold; average fold increase in insulin-stimulated glucose uptake compared to vehicle treated control (3T3-L1 adipocytes [2]; Diflunisal 36 μM, Bezafibrate 0 μM, average of four biological replicates): 1.52 fold
C[C@H]1O[C@@H](O[C@H]2[C@@H](O)C[C@H](O[C@H]3[C@@H](O)C[C@H](O[C@H]4CC[C@@]5(C)[C@H](CC[C@@H]6[C@@H]5CC[C@]5(C)[C@@H](C7=CC(=O)OC7)CC[C@]65O)C4)O[C@@H]3C)O[C@@H]2C)C[C@H](O)[C@@H]1O [Digitoxin] | 0.8801 |  |  | 
C[C@H](N[C@@H](CCc1ccccc1)C(=O)O)C(=O)N1CCC[C@H]1C(=O)O [Enalaprilat] | 0.992 | 0.8333 | 1.2739 | 
COc1cc([C@@H]2c3cc4c(cc3[C@@H](O[C@@H]3O[C@@H]5CO[C@@H](C)O[C@H]5[C@H](O)[C@H]3O)[C@H]3COC(=O)[C@H]23)OCO4)cc(OC)c1O [Etoposide] | 1.037 |  |  | 
CCC(Cc1c(I)cc(I)c(O)c1I)C(=O)O (stereo not drawn) [Iohenoxic Acid] | 1.0641 | 1.2119 | 1.0504 | 
CCN(CC)C(=S)[S-].CCN(CC)C(=S)[S-].[Pb+2] [LEAD DIETHYLDITHIOCARBAMATE] | 1.524 | 1.2527 | 1.064 | 
CCN(CC)CC#CCOC(=O)C(O)(c1ccccc1)C1CCCCC1 (stereo not drawn) [Oxybutynin Chloride] | 1.0483 |  |  | 
O=C1NC(=O)C(c2ccccc2)(c2ccccc2)N1 [PHENYTOIN] | 1.1755 |  |  | 
CCCCC1C(=O)N(c2ccccc2)N(c2ccccc2)C1=O [Phenylbutazone] | 1.2098 |  |  | 
CCN(CC)CCCC(C)Nc1c2ccc(Cl)cc2nc2ccc(OC)cc12 (stereo not drawn) [QUINACRINE] | 1.0058 |  |  | 
Cc1cc(NS(=O)(=O)c2ccc(N)cc2)nc(C)n1 [Sulfasomidine] | 1.1803 | 1.3077 | 1.0165 | 
CC(C)(C)NCC(O)c1cc(O)cc(O)c1 (stereo not drawn) [Terbutaline Sulfate] | 1.2758 |  |  | 
CCS(=O)(=O)CCn1c([N+](=O)[O-])cnc1C [Tinidazole] | 1.0177 |  |  | 
c1ccc(CC2=NCCN2)cc1 [Tolazoline Hydrochloride] | 0.967 |  |  | 
Inulin | 1.0249 | 1.0089 | 1.3377 | 
Invertase | 1.2175 | 0.8561 | 1.3974 | 
Metaproterenol Hemisulfate Salt | 1.7249 | 1.1261 | 1.4052 | 
